Converted amounts (≈) assume the structure as drawn.
Assays:
[1] = tested on: Micrococcus luteus; test: Bacteriostatic activity against Micrococcus luteus after 24 hrs by serial dilution microtiter plate method; type: functional, organism-based
[2] = tested on: Proteus vulgaris; test: Bacteriostatic activity against Proteus vulgaris ATCC 6380 after 24 hrs by serial dilution microtiter plate method; type: functional, organism-based; settings: ATCC 6380, 24 h
[3] = tested on: HeLa; test: Cytotoxicity against human HeLa S3 cells after 120 hrs by MTT assay; type: functional, cell-based
[4] = tested on: Salmonella typhimurium; test: Bacteriostatic activity against Salmonella Typhimurium PCM 2180 after 24 hrs by serial dilution microtiter plate method; type: functional, organism-based, Salmonella enterica subsp. enterica serovar Typhimurium; settings: Salmonella enterica
[5] = tested on: Mycobacterium tuberculosis; test: Tuberculostatic activity against Mycobacterium tuberculosis H37Rv; type: functional
[6] = tested on: Staphylococcus aureus; test: Bacteriostatic activity against Staphylococcus aureus ATCC 9144 after 24 hrs by serial dilution microtiter plate method; type: functional, organism-based; settings: ATCC 9144, 24 h
[7] = tested on: Candida albicans; test: Antifungal activity against Candida albicans ATCC 10261 after 48 hrs by serial dilution microtiter plate method; type: functional, organism-based; settings: ATCC 10261, 48 h
[8] = tested on: Mycobacterium kansasii; test: Tuberculostatic activity against Mycobacterium kansasii; type: functional
[9] = tested on: Escherichia coli; test: Bacteriostatic activity against Escherichia coli ATCC 11775 after 24 hrs by serial dilution microtiter plate method; type: functional, organism-based; settings: ATCC 11775, 24 h

Structure (SMILES)	IC50 [1]	IC50 [2]	IC50 [3]	IC50 [4]	MIC [5]	IC50 [6]	IC50 [7]	MIC [8]	IC50 [9]
COc1ccc2oc(=O)sc2c1C(=O)/C=C/c1ccc(OCCN(C)C)cc1	15.6 µg/mL (≈ 39.1 µM)	125 µg/mL (≈ 313 µM)	8.3 µM	250 µg/mL (≈ 626 µM)	100 µg/mL (≈ 250 µM)	15.6 µg/mL (≈ 39.1 µM)	125 µg/mL (≈ 313 µM)	100 µg/mL (≈ 250 µM)	125 µg/mL (≈ 313 µM)
COc1ccc(/C=C/C(=O)c2c(OC)ccc3oc(=O)sc23)cc1	> 1000 µg/mL	> 1000 µg/mL		> 1000 µg/mL	> 100 µg/mL	> 1000 µg/mL	> 1000 µg/mL	> 100 µg/mL	> 1000 µg/mL
COc1ccc2oc(=O)sc2c1C(=O)/C=C/c1ccccc1	> 1000 µg/mL	> 1000 µg/mL	8.4 µM	> 1000 µg/mL	> 100 µg/mL	> 1000 µg/mL	> 1000 µg/mL	> 100 µg/mL	> 1000 µg/mL
COc1ccc2oc(=O)sc2c1C(=O)/C=C/c1ccc([N+](=O)[O-])cc1	> 1000 µg/mL	> 1000 µg/mL		> 1000 µg/mL	> 100 µg/mL	> 1000 µg/mL	> 1000 µg/mL	> 100 µg/mL	> 1000 µg/mL
COc1ccc2oc(=O)sc2c1C(=O)/C=C/c1ccc(N(C)C)cc1	> 1000 µg/mL	> 1000 µg/mL	> 100 µM	> 1000 µg/mL	> 100 µg/mL	> 1000 µg/mL	> 1000 µg/mL	> 100 µg/mL	> 1000 µg/mL
COc1ccc(/C=C/C(=O)c2c(OC)ccc3oc(=O)sc23)cc1OC	> 1000 µg/mL	> 1000 µg/mL	14.1 µM	> 1000 µg/mL	> 100 µg/mL	> 1000 µg/mL	> 1000 µg/mL	> 100 µg/mL	> 1000 µg/mL
COc1ccc2oc(=O)sc2c1C(=O)/C=C/c1ccc(Cl)cc1	15.6 µg/mL (≈ 45 µM)	> 1000 µg/mL	5.2 µM	> 1000 µg/mL	100 µg/mL (≈ 288 µM)	7.8 µg/mL (≈ 22.5 µM)	62.5 µg/mL (≈ 180 µM)	> 100 µg/mL	> 1000 µg/mL
COc1ccc2oc(=O)sc2c1C(=O)/C=C/c1ccc(OCCN2CCOCC2)cc1	31.2 µg/mL (≈ 70.7 µM)	125 µg/mL (≈ 283 µM)		250 µg/mL (≈ 566 µM)	50 µg/mL (≈ 113 µM)	31.2 µg/mL (≈ 70.7 µM)	250 µg/mL (≈ 566 µM)	> 100 µg/mL	125 µg/mL (≈ 283 µM)
COc1ccc2oc(=O)sc2c1C(=O)/C=C/c1cccc(Cl)c1	> 1000 µg/mL	> 1000 µg/mL		> 1000 µg/mL	25 µg/mL (≈ 72.1 µM)	> 1000 µg/mL	> 1000 µg/mL	100 µg/mL (≈ 288 µM)	> 1000 µg/mL
COc1ccc2oc(=O)sc2c1C(=O)/C=C/c1ccc(Br)cc1	> 1000 µg/mL	> 1000 µg/mL		> 1000 µg/mL	> 100 µg/mL	> 1000 µg/mL	> 1000 µg/mL	> 100 µg/mL	> 1000 µg/mL
COc1ccc2oc(=O)sc2c1C(=O)/C=C/c1ccccc1Cl	> 1000 µg/mL	> 1000 µg/mL		> 1000 µg/mL	50 µg/mL (≈ 144 µM)	> 1000 µg/mL	> 1000 µg/mL	> 100 µg/mL	> 1000 µg/mL

— ChEMBL document CHEMBL1147190, “Acid-catalyzed synthesis of oxathiolone fused chalcones. Comparison of their activity toward various microorganisms and human cancer cells line” (Eur J Med Chem, 2007)
